Laboratory results published in patent US20220259202A1, “1-(4-(AMINOMETHYL)BENZYL)-2-BUTYL-2H-PYRAZOLO[3,4-C]QUINOLIN-4-AMINE DERIVATIVES AND RELATED COMPOUNDS AS TOLL-LIKE RECEPTOR (TLR) 7/8 AGONISTS, AS WELL AS ANTIBODY DRUG CONJUGATES THEREOF FOR USE IN CANCER THERAPY AND DIAGNOSIS” (SUTRO BIOPHARMA, INC., priority 2019, published 2022).

Assays:
Assay in all cases: HEK293 SEAP reporter assay, other TLRs (Biological Example 3)
Format in all cases: cell-based
Conditions in all cases: 16 hrs, up to 1 μM
[1] = molecular target: T1, human TLR5 (Homo sapiens, UniProt O60602)
T1 construct: host or cells: HEK293
Text: (§1) In this example, the activity of the Compound 1 to stimulate different human and mouse TLR pathways was investigated on HEK293 cells transfected with inducible SEAP (secreted embryonic alkaline phosphatase) reporter genes and also expressing different human TLRs (TLR2, TLR3, TLR4, TLR5, TLR7, TLR8, TLRS) or mouse TLRs (TLR2, TLR3, TLR4, TLR5, TLR7, TLR8, TLR13). Compound A
(§2) HEK293 reporter cell lines were purchased from Invivogen and cell lines were maintained in manufacture recommended culture medium with required supplemental antibiotics. On the day of assay, the cells were harvested with Accutase and counted by the Vi-CELL Cell Viability Analyzers. Cells were re-suspended in HEK blue detection medium and a total of 10000 cells were seeded in each well of a 384-well flat bottom plate. […] Assay plates were cultured at 37° C. in a CO2 incubator for 16 hrs. HEK-Blue™ Detection medium changes to a purple/blue color in the presence of secreted SEAP, which can be detected by spectrophotometry at 620-655 nm. Data was fitted with non-linear regression analysis, using a log(inhibitor) vs. response-variable slope, 3-parameter fit with GraphPad Prism.

[2] = molecular target: T2, mouse TLR3 (Mus musculus, UniProt Q99MB1)
T2 construct: host or cells: HEK293
T2 sequence (Q99MB1 26-905): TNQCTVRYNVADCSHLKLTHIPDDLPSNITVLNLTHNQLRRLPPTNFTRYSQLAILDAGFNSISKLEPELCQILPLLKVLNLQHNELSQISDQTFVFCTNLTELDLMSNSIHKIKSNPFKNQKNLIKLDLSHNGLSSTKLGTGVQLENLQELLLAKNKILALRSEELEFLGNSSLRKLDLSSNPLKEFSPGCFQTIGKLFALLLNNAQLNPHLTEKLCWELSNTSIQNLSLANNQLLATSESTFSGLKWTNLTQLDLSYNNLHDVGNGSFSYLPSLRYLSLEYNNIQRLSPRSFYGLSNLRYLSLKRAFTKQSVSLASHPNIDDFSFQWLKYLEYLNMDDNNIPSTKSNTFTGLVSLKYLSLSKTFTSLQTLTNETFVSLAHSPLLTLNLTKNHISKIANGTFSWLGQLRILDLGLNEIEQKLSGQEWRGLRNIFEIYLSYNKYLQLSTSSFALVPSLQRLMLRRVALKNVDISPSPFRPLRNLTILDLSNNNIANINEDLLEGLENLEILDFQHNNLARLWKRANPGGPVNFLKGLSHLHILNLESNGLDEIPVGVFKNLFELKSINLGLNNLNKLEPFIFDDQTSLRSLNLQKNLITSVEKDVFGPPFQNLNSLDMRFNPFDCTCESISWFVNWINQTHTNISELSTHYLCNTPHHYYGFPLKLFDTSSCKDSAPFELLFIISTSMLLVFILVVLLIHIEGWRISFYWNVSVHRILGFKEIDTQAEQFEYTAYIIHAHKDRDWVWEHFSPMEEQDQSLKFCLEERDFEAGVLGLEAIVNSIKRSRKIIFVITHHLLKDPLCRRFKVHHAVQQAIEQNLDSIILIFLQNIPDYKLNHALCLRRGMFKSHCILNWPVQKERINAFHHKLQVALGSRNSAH
Text: as §1, §2

[3] = molecular target: T3, mouse TLR13 (Mus musculus, UniProt Q6R5N8)
T3 construct: host or cells: HEK293
T3 sequence (Q6R5N8 69-991): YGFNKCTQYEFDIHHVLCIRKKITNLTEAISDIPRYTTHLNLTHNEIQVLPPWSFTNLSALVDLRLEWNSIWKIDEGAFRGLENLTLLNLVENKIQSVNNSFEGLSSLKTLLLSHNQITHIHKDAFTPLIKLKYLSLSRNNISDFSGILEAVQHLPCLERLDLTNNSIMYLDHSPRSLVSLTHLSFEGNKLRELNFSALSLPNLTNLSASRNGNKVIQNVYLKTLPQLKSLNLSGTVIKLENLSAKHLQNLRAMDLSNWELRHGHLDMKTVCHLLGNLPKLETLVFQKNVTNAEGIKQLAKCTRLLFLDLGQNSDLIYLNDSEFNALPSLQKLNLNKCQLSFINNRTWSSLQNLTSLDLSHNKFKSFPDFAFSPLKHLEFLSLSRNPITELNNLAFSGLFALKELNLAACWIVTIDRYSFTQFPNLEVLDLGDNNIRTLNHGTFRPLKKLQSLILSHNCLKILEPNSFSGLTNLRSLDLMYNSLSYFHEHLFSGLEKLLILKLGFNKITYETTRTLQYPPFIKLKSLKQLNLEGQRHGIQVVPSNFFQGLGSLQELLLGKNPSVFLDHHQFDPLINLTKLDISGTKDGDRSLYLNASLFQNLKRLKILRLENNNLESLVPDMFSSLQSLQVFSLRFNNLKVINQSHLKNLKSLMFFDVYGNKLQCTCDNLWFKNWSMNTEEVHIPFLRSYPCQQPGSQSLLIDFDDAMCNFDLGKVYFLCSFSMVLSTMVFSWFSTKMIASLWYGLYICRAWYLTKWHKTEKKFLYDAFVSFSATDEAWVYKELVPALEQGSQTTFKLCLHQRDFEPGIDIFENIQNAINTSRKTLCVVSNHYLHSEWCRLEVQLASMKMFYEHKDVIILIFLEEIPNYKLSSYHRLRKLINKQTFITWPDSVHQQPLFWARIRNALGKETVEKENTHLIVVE
Text: as §1, §2

Measured: EC50

T1 sequence (O60602 21-858): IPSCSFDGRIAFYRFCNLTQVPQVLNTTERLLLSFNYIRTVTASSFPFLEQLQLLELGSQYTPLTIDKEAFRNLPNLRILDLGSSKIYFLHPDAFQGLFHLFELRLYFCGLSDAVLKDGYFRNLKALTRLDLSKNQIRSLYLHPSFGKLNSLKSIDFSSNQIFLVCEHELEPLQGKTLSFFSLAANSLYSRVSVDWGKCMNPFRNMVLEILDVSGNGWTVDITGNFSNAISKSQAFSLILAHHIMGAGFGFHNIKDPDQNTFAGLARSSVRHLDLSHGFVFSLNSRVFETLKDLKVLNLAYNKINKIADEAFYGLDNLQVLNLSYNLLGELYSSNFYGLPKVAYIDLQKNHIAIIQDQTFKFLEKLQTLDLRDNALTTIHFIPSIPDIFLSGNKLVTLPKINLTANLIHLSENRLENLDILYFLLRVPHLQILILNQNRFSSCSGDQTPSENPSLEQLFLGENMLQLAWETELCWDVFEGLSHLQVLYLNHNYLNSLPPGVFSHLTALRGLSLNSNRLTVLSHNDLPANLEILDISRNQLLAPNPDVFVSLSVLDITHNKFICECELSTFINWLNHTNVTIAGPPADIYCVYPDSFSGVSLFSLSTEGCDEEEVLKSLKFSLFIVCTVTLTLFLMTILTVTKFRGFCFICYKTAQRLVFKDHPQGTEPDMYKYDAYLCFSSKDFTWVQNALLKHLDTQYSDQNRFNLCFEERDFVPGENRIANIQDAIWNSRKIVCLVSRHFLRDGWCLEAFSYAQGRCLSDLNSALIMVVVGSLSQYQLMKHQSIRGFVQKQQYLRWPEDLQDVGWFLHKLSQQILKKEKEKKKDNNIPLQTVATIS

CCCCn1nc2c(N)nc3ccccc3c2c1Cc1ccc(CN)cc1 [Compound 1, 1-(4-(aminomethyl)benzyl)-2-butyl-2H-pyrazolo[3,4-c]quinolin-4-amine]
> 1000 nM: all assays above

CCCCc1nc2c(N)nc3ccccc3c2n1Cc1ccc(CN)cc1 [Compound A, reference compound]
> 1000 nM: all assays above
